Where two headings read alike, the source gives them in different places.
What was measured:
[1] = system: serum albumin (SA); settings: after intravenous injection, in most of the cases; cited from earlier work
[2] = system: SAs from different species; settings: CSA versus HSA
[3] = system: plasma protein; settings: cited from earlier work
[4] = system: human serum albumin; settings: previous study, cited from earlier work

For CC(C)c1cccc(C(C)C)c1O [PR, 2,6-Diisopropylphenol], the “PR bound to SA” value [1] is listed as “approximately 80%”, the “difference between UC50 values” [2] is listed as 0.07 and the “% PPB (plasma protein binding)” value [3] is listed as 96–98%. The ΔGPBSA ([4]; PR1) was -23.44 kcal/mol and the ΔGPBSA ([4]; PR2) was -19.03 kcal/mol.

Reference: paper PMC7557242 (ACS Omega, 2020)
